Experimental findings from patent publication US10391196B2, “Prefabricated alginate-drug bandages” (President and Fellows of Harvard College, priority 2013, dated 2019) are described below.

Data set [1] in a line: Release of model drugs from 4% (w/v) alginate pieces. Particulars: 4% (w/v) alginate pieces 8 mm diameter, 2 mm thick, cross-linked 15 minutes. In kind it is physicochemical. How it is done: Drug release was recorded for 4% (w/v) alginate pieces 8 mm in diameter and 2 mm in thickness that were cross-linked for 15 minutes. […] (Sample size of study n=3 per time point).
A short description of data set [2]: Substance P release from alginate bandage sheets in PBS, measured by ELISA. The format is physicochemical. The following applies: 2% (w/v) and 4% (w/v) bandaging sheets; 8 mm diameter, 2 mm thick sample in 2 mls PBS. On the procedure:
The release was performed by placing the bandage sample of 8 mm diameter and 2 mm thickness in 2 mls of PBS and moving it to a new solution at defined time intervals. The release was examined using a commercially available ELISA assay. […] The sheets incorporate either 32 μg or 64 μg of Substance P with a given processing loss (Sample size n=3 per time point). Small molecule compounds (less than 1000 daltons) are typically added to the composition in a volume of 250 μl for a dressing that is about 12 mm in diameter and 2 mm thick. Thus, substance P was added at 128 μg/ml at the low concentration and 256 μg/ml at the higher concentration. Actual clinical doses are the same or similar. Since small molecules may diffuse out of the dressing quickly, it is advantageous for small molecules to have an affinity for the alginate, e.g., since alginate is negatively charged, positively charged small molecule drugs elute at a clinically acceptable and beneficial rate (and consistent with standard practice for changing of wound dressings). For example, substance P is slightly positively charged and is therefore attracted to the alginate. Charge is less or not relevant for larger molecules, e.g., BSA. Generally, the dose is determined based on the therapeutic dose of the drug. For example, VEGF is administered to the dressing at about 50 μg/ml (3 μg in 60 μl of liquid).

Entries after “also recorded” stand apart in the source; their conditions may differ.

Turning to `O=C1c2c(O)ccc(O)c2C(=O)c2c(NCCNCCO)ccc(NCCNCCO)c21` [mitoxantrone, Mitoxantrone], the “release profile from the alginate dressing material” value in data set [1] is reported as “sustained release from the scaffold, which is still ongoing at the termination of the experiment”.
On to `Cc1cc(-c2ccc(/N=N/c3c(S(=O)(=O)O)cc4cc(S(=O)(=O)O)cc(N)c4c3O)c(C)c2)ccc1/N=N/c1c(S(=O)(=O)O)cc2cc(S(=O)(=O)O)cc(N)c2c1O` [trypan blue dye, Trypan blue], for which, in data set [1], the “loss during wetting step” value turned out to be 24% and the “release profile from the alginate dressing material” value is given as “lost very rapidly; also recorded: the majority within one day”.
As for “Arg-Pro-Lys-Pro-Gln-Gln-Phe-Phe-Gly-Leu-Met [Substance P]”, in data set [2], the “duration of sustained release of the peptide from the bandage” value is reported as “at least 3 days”.
